One sequence from US11179450B2, “Long chain antigen containing interepitope sequence that promotes antigen presentation to T cells” (MIE UNIVERSITY, priority 2013, dated 2021) can be followed below.

Format in all cases: in vivo, BALB/c mice
The test system of assay [1] is mouse fibrosarcoma cell line CMS5a. Description: Mouse tumor growth test. The conditions noted are these: FIG. 2; single dose of vaccine with CpG oligo DNA before subcutaneous CMS5a implantation (prophylactic condition); Student's t test. From the text: Long chain peptide antigens MEN, all containing three types of mouse CD8+ T cell epitope sequences (MA p265 (Sequence No. 27), NY p81 (Sequence No. 29), and mERK2 9m (Sequence No. 28)), were synthesized. The interepitope sequences between the respective epitopes were respectively six consecutive tyrosines (Y6) (Sequence No. 1), six consecutive glycines (G6) (Sequence No. 2), or six consecutive prolines (P6) (Sequence No. 3). Each long chain peptide antigen was complexed with CHP and administered in a single dose as a vaccine to a mouse. As a control, a short chain peptide vaccine, constituted of just the mERK2 9m peptide, was mixed with Freund's incomplete adjuvant and administered. In the process of administration, CpG oligo DNA was coadministered as an adjuvant. On the day after administration, a mouse fibrosarcoma cell line CMS5a, expressing mERK2 as a tumor antigen and presenting the CD8+ T cell epitope mERK2 9m derived from the same antigen, was implanted subcutaneously and its growth was recorded over time.
A subcloned CMS5a cell line, obtained from a CMS5 cell line isolated from fibrosarcoma induced by administering 3-methylcholanthrene to a BALB/c mouse, expresses mutant ERK2 (mERK2) as a tumor antigen and presents a CD8^+ T cell epitope derived from the mERK2. The CMS5a cell line cultured in a T75 flask (Nunc) was detached using PBS containing 0.5% trypsin and collected in RPMI1640 medium containing 10% FBS. After centrifuging (400×g, 5 minutes, 4° C.), the supernatant was removed, and the cells were rinsed twice with RPMI1640 medium, thereafter suspended in RPMI1640 medium at a concentration of 1×10^6 cells/100 μL, and implanted subcutaneously in BALB/c mice at a dose of 100 μL/individual. The CHP/long chain peptide complexes and the adjuvant were administered 7 days before tumor implantation (prophylactic condition). After tumor implantation, the length and breadth of the tumor were measured and the product thereof was recorded as tumor size. The data in the tumor growth test were compared by Student's t test using Microsoft® Excel® (Microsoft Corporation).

In assay [2] the test system is CD8+ T cells specific to MA p265, NY p81 and mERK2 9m. In words: Specific CD8+ T cell induction by CHP/long chain peptide vaccines in mice, intracellular cytokine staining of spleen cells. The text has this: Long chain peptide antigens MEN, all containing three types of mouse CD8+ T cell epitope sequences (MA p265 (Sequence No. 27), NY p81 (Sequence No. 29), and mERK2 9m (Sequence No. 28)), were synthesized. The interepitope sequences between the respective epitopes were respectively six consecutive tyrosines (Y6) (Sequence No. 1), six consecutive glycines (G6) (Sequence No. 2), six consecutive prolines (P6) (Sequence No. 3), or six consecutive threonines (T6) (Sequence No. 4). Each long chain peptide antigen was complexed with cholesterol-modified pullulan (CHP), which is a type of delivery system, and administered as a vaccine to a mouse. In the process of administration, CpG oligo DNA was coadministered as an adjuvant. Spleen cells were collected one week after the final administration and the frequencies of CD8+ T cells specific to the respective epitope sequences were measured by an intracellular cytokine staining method.
Long chain peptide antigens NME, all containing three types of mouse CD8+ T cell epitope sequences (MA p265 (Sequence No. 27), NY p81 (Sequence No. 29), and mERK2 9m (Sequence No. 28)), were synthesized. The antigens differ from the MEN sequences shown in FIG. 1 in the order of the three types of epitopes. The interepitope sequences between the respective epitopes were respectively six consecutive tyrosines (Y6) (Sequence No. 5), six consecutive glycines (G6) (Sequence No. 6), or six consecutive prolines (P6) (Sequence No. 7). Vaccines containing the respective long chain peptide antigens were administered to mice in the same manner as in FIG. 1 and the frequencies of CD8+ T cells specific to the respective epitope sequences were measured by the intracellular cytokine staining method.
Long chain peptide antigens MEN, ENM, and NME, all containing three types of mouse CD8+ T cell epitope sequences (MA p265 (Sequence No. 27), NY p81 (Sequence No. 29), and mERK2 9m (Sequence No. 28)), were synthesized. MEN, ENM, and […] in the order of the three types of epitopes. The interepitope sequences between the respective epitopes were each six consecutive tyrosines (Y6) (Sequence Nos. 1, 5 and 8). Vaccines containing the respective long chain peptide antigens were administered to mice in the same manner as in FIG. 1 and the frequencies of CD8+ T cells specific to the respective epitope sequences were measured by the intracellular cytokine staining method.
Each long chain peptide was dissolved in dimethyl sulfoxide (DMSO) at a concentration of 10 mg/mL. CHP was dissolved in 6 M urea-containing phosphate buffered saline (PBS) at a concentration of 10 mg/mL 1 mL (10 mg) of the long chain peptide solution and 20 mL (200 mg) of the CHP solution were mixed and left to stand at room temperature overnight in a dark place. The liquid mixture was transferred into a dialysis membrane (molecular weight cutoff: 3,500; Thermo Fisher Scientific, Inc.) and dialyzed for 2 hours to overnight at 4° C. against 0.6 M urea-containing PBS of a volume ratio of not less than 100 times as the dialysis outer solution. Dialysis was then performed for 2 hours to overnight at 4° C. against 0.06 M urea-containing PBS of a volume ratio of not less than 100 times as the dialysis outer solution. Dialysis was performed again for 2 hours to overnight at 4° C. against PBS of a volume ratio of not less than 100 times as the dialysis outer solution. The dialyzed inner solution was collected, filtered through a filtration sterilization filter of 0.45 μm or 0.22 μm pore size, and thereafter the UV absorption at 280 nm was measured to determine the final concentration of the long chain peptide from its molecular extinction coefficient.
Each CHP/long chain peptide complex as the vaccine and the CpG oligo DNA as the adjuvant were administered at the same time to a mouse. Administration was performed by subcutaneous injection on the back of the mouse. […]

Assay [3] concerns F4/80+ cells (macrophages). In words: Uptake of FAM-labeled long chain peptide antigens in individual animals, regional lymph node macrophages. The conditions noted are these: FIG. 9, complexed with CHP, subcutaneous, 16 hours after administration. Here is the method: The same FAM-labeled long chain peptide antigens as those in FIG. 8 were complexed with CHP and administered subcutaneously to mice. After 16 hours, cells were collected from a regional lymph node of the administration site, and the fluorescence uptakes into dendritic cells and mouse macrophages were measured by flow cytometry with the P4 fraction in the figure being deemed to correspond to the dendritic cells and the P5 fraction in the figure being deemed to correspond to the macrophages.
A test of uptake of long chain peptide antigens by antigen-presenting cells in individual animals was performed as follows. Each long chain peptide was fluorescence-labeled, complexed with a CHP nanogel, administered subcutaneously to BALB/c mice. 16 hours after administration, cells were collected from lymph nodes and after staining with the anti-CD11c antibody and the anti-F4/80 antibody, the uptake of the fluorescence-labeled long chain peptide antigens by CD11c^+ cells (dendritic cells) and F4/80^+ cells (macrophages) was analyzed by flow cytometry.

Turning to “SNPARYEFLYYYYYYQYIHSANVLYYYYYYRGPESRLL (Long chain peptide antigen, containing three types of mouse CD8+ T cell epitope sequences (MA p265, NY p81, and mERK2 9m)) [MEN(Y6)]”, in assay [1], the “growth of the tumor” value is reported as “suppressed significantly (p<0.05)”. For the same sequence, the “induction of specific CD8+ T cells corresponding to all three types of epitopes” value in assay [2] (FIG. 1, MEN antigens complexed with CHP, subcutaneous, CpG oligo DNA adjuvant, spleen cells one week after final administration) was “clearly induced”; in assay [2] (FIG. 4, MEN, ENM, NME epitope orders, interepitope sequence fixed at Y6), “clearly induced”. Further, the “number of tyrosines of the interepitope sequence, judged in view of the results for the three types of epitopes” value in assay [2] (FIG. 6, comparing one to six tyrosines) was “best”; in assay [2] (FIG. 7, comparing five to ten tyrosines), “best”. The “fluorescence uptake into macrophages of the regional lymph node” value in assay [3] is on record as “clearly observed”.
